Results taken from patent US20230144436A1, “MUSCLE TARGETING COMPLEXES AND USES THEREOF FOR TREATING MYOTONIC DYSTROPHY” (Dyne Therapeutics, Inc., priority 2020, published 2023).

Test system: DMPK
Assay: DMPK knockdown by transfected antisense oligonucleotides in DM1 C15 myotubes at 0.5 nM and 50 nM
Assay type: cell-based
Conditions: 72 hours, qPCR; for Percent DMPK Reduction: relative to vehicle control; for Normalized DMPK Remaining: relative to vehicle control = 1.00
Method: Two hundred and thirty-six oligonucleotides for targeting DMPK were generated using in silico analysis. Each individual oligonucleotide was evaluated for their ability to target DMPK in cellulo at two doses—0.5 nM (low dose) and 50 nM (high dose).
Briefly, DM1 C15 immortalized myoblasts were cultured in T-75 flasks until near confluency (˜80% confluent). Myoblasts were then disrupted with trypsin and seeded into 96-well microplates at a density of 50,000 cells/well. Cells were allowed to recover overnight before the growth media was washed out and replaced with a no-serum media to induce differentiation into myotubes. Differentiation proceeded for seven days prior to treatment with DMPK-targeting oligonucleotides.
On day seven following induction of differentiation, DM1 C15 myotubes were transfected with an individual oligonucleotide using 0.3 μL of Lipofectamine MessengerMax per well. All oligonucleotides were tested at both 0.5 nM and 50 nM final concentrations in biological triplicates. After treatment with oligonucleotides, cells were incubated for 72 hours prior to being harvested for total RNA. cDNA was synthesized from the total RNA extracts and qPCR was performed to determine expression levels of DMPK in technical quadruplicate. All qPCR data were analyzed using a traditional […] method and were normalized to a plate-based negative control that comprised cells treated with vehicle control (0.3 μL/well Lipofectamine MessengerMax without any oligonucleotide). Results from these experiments are shown in Table 10. ‘Normalized DMPK Remaining’ for each antisense oligonucleotide in Table 10 refers to the expression level of DMPK in cell treated with said antisense oligonucleotide relative to the negative control that comprised cells treated with vehicle control (wherein the expression level of the negative control has been normalized to equal 1.00)

Substance	Percent DMPK Reduction (0.5 nM oligonucleotide) [%]	Normalized DMPK Remaining (0.5 nM oligonucleotide)	Percent DMPK Reduction (50 nM oligonucleotide) [%]	Normalized DMPK Remaining (50 nM oligonucleotide)
246 (GGACGGCCCGGCUUGCUGCC; chemistry not given here) [compound 246]	58.25	0.42	69.30	0.31
247 (GGGCCCGGAUCACAGGACUG; chemistry not given here) [compound 247]	57.97	0.42	61.96	0.38
248 (CAAACUUGCUCAGCAGUGUC; chemistry not given here) [compound 248]	31.45	0.69	53.93	0.46
249 (AAACUUGCUCAGCAGUGUCA; chemistry not given here) [compound 249]	30.85	0.69	50.69	0.49
250 (CGGAUGGCCUCCAUCUCCCG; chemistry not given here) [compound 250]	28.92	0.71	55.57	0.44
251 (CUCGGCCGGAAUCCGCUCCC; chemistry not given here) [compound 251]	28.64	0.71	64.75	0.35
252 (UCUCGGCCGGAAUCCGCUCC; chemistry not given here) [compound 252]	27.88	0.72	67.46	0.33
253 (UGCUCAGCAGUGUCAGCAGG; chemistry not given here) [compound 253]	27.08	0.73	65.78	0.34
254 (UUGUCGGGUUUGAUGUCCCU; chemistry not given here) [compound 254]	34.16	0.66	55.56	0.44
255 (GUUGCGGGUUUGAUGUCCC; chemistry not given here) [compound 255]	33.31	0.67	61.07	0.39
256 (UCCGCCAGGUAGAAGCGCGC; chemistry not given here) [compound 256]	27.99	0.72	80.06	0.20
258 (AACUUGCUCAGCAGUGUCAG; chemistry not given here) [compound 258]	19.81	0.80	52.64	0.47
259 (CAGCUGCGUGAUCCACCGCC; chemistry not given here) [compound 259]	19.03	0.81	68.34	0.32
261 (GAAGUCGGCCAGGCGGAUGU; chemistry not given here) [compound 261]	18.36	0.82	44.04	0.56
262 (UGUCGGGUUUGAUGUCCCUG; chemistry not given here) [compound 262]	30.09	0.70	68.14	0.32
263 (GGAUGGCCUCCAUCUCCCGG; chemistry not given here) [compound 263]	24.93	0.75	60.77	0.39
264 (AGGAUGUUGUCGGGUUUGAU; chemistry not given here) [compound 264]	24.19	0.76	39.48	0.61
265 (GUCGGGUUUGAUGUCCCUGU; chemistry not given here) [compound 265]	28.89	0.71	64.15	0.36

Substance	Percent DMPK Reduction (0.5 nM oligonucleotide) [%]	Normalized DMPK Remaining (0.5 nM oligonucleotide)	Percent DMPK Reduction (50 nM oligonucleotide) [%]	Normalized DMPK Remaining (50 nM oligonucleotide)
266 (AAUACUCCAUGACCAGGUAC; chemistry not given here) [compound 266]	28.86	0.71	52.07	0.48
267 (CUUGUUCAUGAUCUUCAUGG; chemistry not given here) [compound 267]	16.06	0.84	49.47	0.51
268 (UCAGUGCAUCCAAAACGUGG; chemistry not given here) [compound 268]	15.76	0.84	42.06	0.58
269 (CUGUCCCGGAGACCAUCCCA; chemistry not given here) [compound 269]	35.85	0.64	50.78	0.49
271 (CCCACGUAAUACUCCAUGAC; chemistry not given here) [compound 271]	28.21	0.72	45.94	0.54
273 (CUGUGCACGUAGCCAAGCCG; chemistry not given here) [compound 273]	25.67	0.74	70.10	0.30
274 (UGCCCAUCCACGUCAGGGCC; chemistry not given here) [compound 274]	13.63	0.86	33.09	0.67
275 (AGCGCCUCCGAUAGGCCAGG; chemistry not given here) [compound 275]	21.19	0.79	61.91	0.38
276 (UGUGCACGUAGCCAAGCCGG; chemistry not given here) [compound 276]	24.74	0.75	75.09	0.25
277 (GACCAGGUACAGGUAGUUCU; chemistry not given here) [compound 277]	42.85	0.57	70.95	0.29
279 (CAUCUCGGCCGGAAUCCGCU; chemistry not given here) [compound 279]	20.21	0.80	59.40	0.41
281 (ACAGCGGUCCAGCAGGAUGU; chemistry not given here) [compound 281]	19.94	0.80	55.14	0.45
282 (AAAGCGCCUCCGAUAGGCCA; chemistry not given here) [compound 282]	19.89	0.80	62.04	0.38
283 (GCCAAAGAAGAAGGGAUGUG; chemistry not given here) [compound 283]	24.87	0.75	56.19	0.44
284 (CACGUAAUACUCCAUGACCA; chemistry not given here) [compound 284]	24.40	0.76	46.50	0.54
285 (AUCUCGGCCGGAAUCCGCUC; chemistry not given here) [compound 285]	11.61	0.88	65.98	0.34
287 (GCCAUCUCGGCCGGAAUCCG; chemistry not given here) [compound 287]	18.56	0.81	86.39	0.14
289 (AUGACAAUCUCCGCCAGGUA; chemistry not given here) [compound 289]	42.38	0.58	60.47	0.40
